Among the test systems are A549; CAKI-1; CCRF-CEM; COLO 205; EKVX; HCT-116; HL-60; IGROV-1; M14; NCI-H226; NCI-H460; OVCAR-4; OVCAR-5; SK-MEL-28; SK-MEL-5; SK-OV-3; SNB-19; SR; U-251; UACC-62.
Common to all, as to experiment: DTP human tumour cell line panel, 48 h

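Step 1: Grow cells in 96-well plates. Step 2: Expose to compound for 48 hours at 5 concentrations. Step 3: Interpolate endpoints linearly; if unreached, use highest concentration. Here, GI50 denotes the concentration required for 50% inhibition of growth.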 Activity calls are given as the source filed them. Rule as the data show it: active = GI50 up to about 1.1 µM and inactive = higher.

For `c1ccc2c3c(c(N4CCOCC4)nc2c1)CCCC3`, the GI50 (in general, the concentration giving 50% growth inhibition) with A549 was 43.1 µM (inactive); in the experiment on CAKI-1, 64.7 µM (inactive); with CCRF-CEM it was 31.9 µM (inactive); in the experiment on COLO 205, 20 µM (inactive); with EKVX, 12.5 µM (inactive); in the experiment with HCT-116, 40.6 µM (inactive). Also, the GI50 is 14.2 µM (inactive) with HL-60; > 100 µM (inactive) with IGROV-1; 50.7 µM (inactive) in the experiment with M14; 19.6 µM (inactive) with NCI-H226; 34.7 µM (inactive) in the experiment on NCI-H460; 49.9 µM (inactive) in the experiment with OVCAR-4. For the same compound, the GI50 with OVCAR-5 is 15.1 µM (inactive); in the experiment with SK-MEL-28, 85.1 µM (inactive); in the experiment with SK-MEL-5, 20.2 µM (inactive); in the experiment with SK-OV-3 it was 86.1 µM (inactive); with SNB-19, 36.9 µM (inactive); with SR, 46.8 µM (inactive). For the same compound, the GI50 is 36.6 µM (inactive) in the experiment on U-251 and 55.7 µM (inactive) in the experiment with UACC-62.

`COc1ccc2nc(C)cc(NCCCCCCCCCNc3cc(C)nc4ccc(OC)cc34)c2c1`: the GI50 is 1.5 µM (inactive) in the experiment with A549; 6.67 µM (inactive) with CAKI-1; 1.27 µM (inactive) with CCRF-CEM; 2.28 µM (inactive) in the experiment with COLO 205; 3.4 µM (inactive) in the experiment on EKVX; 0.279 µM (active) in the experiment with HCT-116. Moreover, the GI50 was 0.824 µM (active) with HL-60; 2.99 µM (inactive) in the experiment with IGROV-1; 1.95 µM (inactive) with M14; 6.18 µM (inactive) in the experiment on NCI-H226; 0.396 µM (active) in the experiment on NCI-H460; 2.19 µM (inactive) in the experiment on OVCAR-4. The GI50 with OVCAR-5 is 2.55 µM (inactive); in the experiment with SK-MEL-28, 15 µM (inactive); in the experiment on SK-MEL-5 it was 1.71 µM (inactive); with SK-OV-3 it was 8.79 µM (inactive); in the experiment on SNB-19, 2.67 µM (inactive); in the experiment on SR, 0.486 µM (active). In addition, the results for the GI50 with U-251 and in the experiment with UACC-62 were 2.07 µM (inactive) and 2.83 µM (inactive), respectively.

Regarding `Cc1cccc2c(=O)c([Se]c3coc4c(C)cccc4c3=O)coc12`, the GI50 in the experiment on A549 was 7.71 µM (inactive); in the experiment on CAKI-1, 20.7 µM (inactive); in the experiment with CCRF-CEM, 31.4 µM (inactive); in the experiment on COLO 205, > 10 µM (inactive); with EKVX, 17.3 µM (inactive); with HCT-116, 5.68 µM (inactive). For the same compound, the GI50 in the experiment with HL-60 was 30.6 µM (inactive); with IGROV-1, 13.6 µM (inactive); in the experiment with M14 it was 16.4 µM (inactive); with NCI-H226 it was 16.9 µM (inactive); in the experiment on NCI-H460, 5.73 µM (inactive); with OVCAR-4, 16.7 µM (inactive). Also, the GI50 with OVCAR-5 is 18.9 µM (inactive); with SK-MEL-28, 16.7 µM (inactive); in the experiment on SK-MEL-5 it was 18.2 µM (inactive); with SK-OV-3, 17.6 µM (inactive); in the experiment on SNB-19, 19.4 µM (inactive); with SR it was 14.8 µM (inactive). For the same compound, the GI50 in the experiment with U-251 is 11.2 µM (inactive); in the experiment with UACC-62, 17.8 µM (inactive).

Regarding `C=C1CC(COc2ccc3c(C)c(Cl)c(=O)oc3c2)(c2ccccc2)OC1=O` (stereo unspecified), the GI50 with A549 is 11.9 µM (inactive); with CAKI-1, 1.37 µM (inactive); in the experiment on CCRF-CEM, 0.302 µM (active); in the experiment with COLO 205, 0.675 µM (active); in the experiment on EKVX it was 10.5 µM (inactive); with HCT-116, 1.01 µM (active). In addition, the GI50 is 0.277 µM (active) in the experiment on HL-60; 1.94 µM (inactive) with IGROV-1; 1.04 µM (active) in the experiment on M14; 2.34 µM (inactive) in the experiment on NCI-H226; 8 µM (inactive) in the experiment with NCI-H460; 1.67 µM (inactive) in the experiment with OVCAR-4. In addition, the GI50 with OVCAR-5 is 12.4 µM (inactive); in the experiment with SK-MEL-28, 2.11 µM (inactive); in the experiment with SK-MEL-5, 1.74 µM (inactive); in the experiment with SK-OV-3, 5.92 µM (inactive); in the experiment on SNB-19 it was 13.8 µM (inactive); in the experiment on SR, 1.3 µM (inactive). Further, the GI50 with U-251 was 8.15 µM (inactive); in the experiment on UACC-62, 1.74 µM (inactive).

For the compound `N=C(N)NS(=O)(=O)c1ccc(Nc2c3ccccc3nc3c(C(=O)N4CCN(CCO)CC4)cccc23)cc1`, the GI50 in the experiment with A549, with CAKI-1, in the experiment with CCRF-CEM, in the experiment on COLO 205, with EKVX and in the experiment with HCT-116 was > 100 µM (inactive) each time. Further, the GI50 in the experiment on HL-60, in the experiment with IGROV-1, with M14, in the experiment with NCI-H226, in the experiment on NCI-H460 and in the experiment on OVCAR-4 was > 100 µM (inactive) in each case. Moreover, the GI50 is > 100 µM (inactive) with OVCAR-5; > 100 µM (inactive) with SK-MEL-28; > 100 µM (inactive) with SK-MEL-5; 2.7 µM (inactive) in the experiment on SK-OV-3; > 100 µM (inactive) with SNB-19; > 100 µM (inactive) in the experiment on SR. Moreover, the GI50 in the experiment with U-251 and in the experiment with UACC-62 was > 100 µM (inactive) in each case.

Take `O=C(c1ccc(Cl)cc1Cl)N(Cc1cccnc1)C(=S)N(Cc1cccnc1)C(=O)c1ccc(Cl)cc1Cl`: the GI50 in the experiment on A549 is 19 µM (inactive); in the experiment with CAKI-1, 11.6 µM (inactive); in the experiment with CCRF-CEM it was 1.86 µM (inactive); in the experiment on COLO 205 it was 2.08 µM (inactive); with EKVX, 15.7 µM (inactive); in the experiment with HCT-116, 2.48 µM (inactive). Further, the GI50 in the experiment on HL-60 is 3.55 µM (inactive); in the experiment with M14 it was 3.01 µM (inactive); in the experiment on NCI-H226 it was 16.7 µM (inactive); with NCI-H460, 15.5 µM (inactive); in the experiment on OVCAR-4, 2.72 µM (inactive); in the experiment on OVCAR-5 it was 10.7 µM (inactive). Besides, the GI50 is 10.9 µM (inactive) in the experiment with SK-MEL-28; 3.33 µM (inactive) with SK-MEL-5; 19.3 µM (inactive) with SK-OV-3; 12 µM (inactive) with SNB-19; 3.4 µM (inactive) in the experiment with SR; 3.15 µM (inactive) in the experiment on U-251. The GI50 with UACC-62 is 10.3 µM (inactive).

Turning to `C[n+]1c(-c2ccc(/C=C/C=N\NC(=O)c3ccc(C(=O)N/N=C\C=C\c4ccc(-c5cn6ccccc6[n+]5C)cc4)cc3)cc2)cn2ccccc21`, the GI50 with A549 was 74.1 µM (inactive); in the experiment on CAKI-1, 38.7 µM (inactive); in the experiment on CCRF-CEM it was 23.9 µM (inactive); in the experiment on COLO 205, > 100 µM (inactive); in the experiment on EKVX, > 100 µM (inactive); in the experiment with HCT-116 it was > 100 µM (inactive). Further, the GI50 with HL-60 was 30.2 µM (inactive); in the experiment on IGROV-1 it was > 68.5 µM (inactive); in the experiment with M14, > 100 µM (inactive); in the experiment with NCI-H226, > 100 µM (inactive); in the experiment on NCI-H460, > 100 µM (inactive); in the experiment with OVCAR-4, > 81.7 µM (inactive). The GI50 with OVCAR-5 was > 100 µM (inactive); in the experiment on SK-MEL-28, > 100 µM (inactive); with SK-MEL-5, > 84.5 µM (inactive); in the experiment with SK-OV-3, > 100 µM (inactive); in the experiment with SNB-19 it was > 63.4 µM (inactive); in the experiment with SR it was 19.9 µM (inactive). Further, the GI50 with U-251 is 44.7 µM (inactive); in the experiment with UACC-62, > 100 µM (inactive).

As to `CCCCCCn1c(SC)nc(COC(=O)NC)c1COC(=O)NC`, the GI50 was 16.4 µM (inactive) with A549; 15.7 µM (inactive) with CAKI-1; > 10 µM (inactive) in the experiment on CCRF-CEM; 15.8 µM (inactive) in the experiment on COLO 205; 13.9 µM (inactive) with EKVX; 17.8 µM (inactive) with HCT-116. Besides, the GI50 was 19.6 µM (inactive) in the experiment with HL-60; 15.3 µM (inactive) in the experiment with IGROV-1; 21.3 µM (inactive) with M14; 17.2 µM (inactive) in the experiment on NCI-H226; 18.1 µM (inactive) in the experiment on NCI-H460; 9.57 µM (inactive) in the experiment with OVCAR-4. The GI50 in the experiment on OVCAR-5 was 19.9 µM (inactive); in the experiment on SK-MEL-28 it was 17.7 µM (inactive); with SK-MEL-5 it was 16.6 µM (inactive); with SK-OV-3, 19 µM (inactive); with SNB-19 it was 16.1 µM (inactive); with SR, 19.7 µM (inactive). Also, the GI50 with UACC-62 is 14.8 µM (inactive).

Regarding `Fc1cccc(C2SCc3nc4ccccc4n32)c1F` (stereo unspecified), the GI50 was 69 µM (inactive) in the experiment with A549; 59.4 µM (inactive) in the experiment with CAKI-1; 42 µM (inactive) with CCRF-CEM; 80.5 µM (inactive) with COLO 205; 36.6 µM (inactive) in the experiment with EKVX; 48.5 µM (inactive) in the experiment on HCT-116. For the same compound, the GI50 is 16.1 µM (inactive) in the experiment on HL-60; 73.8 µM (inactive) in the experiment on IGROV-1; 62.4 µM (inactive) in the experiment with M14; 41.6 µM (inactive) in the experiment on NCI-H226; 51.5 µM (inactive) in the experiment on NCI-H460; 42.1 µM (inactive) with OVCAR-4. Moreover, the GI50 in the experiment on OVCAR-5 was > 100 µM (inactive); with SK-MEL-5, 21.6 µM (inactive); with SK-OV-3, > 100 µM (inactive); in the experiment on SNB-19, > 100 µM (inactive); in the experiment on SR, 28.4 µM (inactive); in the experiment with U-251, 82.8 µM (inactive). In the experiment on UACC-62, the GI50 was 63.5 µM (inactive).

For the compound `O=Cc1ccc2ccocc1-2`, the GI50 with A549, with CAKI-1, in the experiment with CCRF-CEM, in the experiment on COLO 205, in the experiment on EKVX and in the experiment on HCT-116 was > 100 µM (inactive) in each case. Further, the GI50 in the experiment on HL-60, in the experiment on IGROV-1, with M14, in the experiment with NCI-H226, in the experiment with NCI-H460 and with OVCAR-4 was > 100 µM (inactive) in each case. The GI50 in the experiment with OVCAR-5, with SK-MEL-5, in the experiment with SK-OV-3, with SNB-19, in the experiment on SR and in the experiment on U-251 was > 100 µM (inactive) each time. Further, the GI50 in the experiment with UACC-62 was > 100 µM (inactive).
